Reference: patent publication US6420605B1, “Benzamidoxim derivatives, intermediate products and methods for preparing and using them as fungicides” (BASF Aktiengesellschaft, priority 1997, dated 2002)

Test system: powdery mildew of wheat (Erysiphe graminis f.sp.tritici)
Test: Efficacy against powdery mildew of wheat (protective spray, greenhouse)
Format: in vivo
Conditions: wheat seedlings cv. Frühgold sprayed 24 hours before dusting with spores, after 7 days, untreated plants 80%
Protocol: Leaves of wheat seedlings cv. “Frühgold” grown in pots were sprayed to runoff point with aqueous preparation of active ingredient made with a stock solution composed of 10% active ingredient, 63% cyclohexanone and 27% emulsifier and, 24 hours after the spray coating had dried on, dusted with spores of powdery mildew of wheat (Erysiphe graminis f.sp.tritici). The test plants were subsequently placed in the greenhouse at from 20 to 22° C. and a relative atmospheric humidity of 75 to 80%. After 7 days, the extent of the mildew development was determined visually in % of the total leaf area.

[1] = Example 3, aqueous preparation comprising 63 ppm active ingredient

SMILES | extent of the mildew development determined visually in % of the total leaf area [1] | extent of the mildew development determined visually in % of the total leaf area (Example 4, concentration not given)
O=C(Cc1ccccc1)NC(=NOCC1CC1)c1c(F)cccc1OC(F)F [I.6, N-Phenylacetyl-2-difluoromethoxy-6-fluorobenzamide O-cyclopropylmethyl oxime] | free from disease | 
C=CCCON=C(NC(=O)Cc1ccccc1)c1c(F)cccc1OC(F)F [I.3, N-Phenylacetyl-2-difluoromethoxy-6-fluorobenzamide O-allylmethyl oxime] | free from disease | 
N#Cc1c(F)cccc1OC(F)F [II.1, 2-Difluoromethoxy-6-fluorobenzonitrile] |  | free from disease
